The source of these data is patent publication US20100222396A1 (Novartis AG, priority 2009, published 2010).

Molecules are shown by their SMILES. pKd: −log10 of the molar value. Some results are limits rather than exact numbers.

Assay [1] deals with T1, human orexin 1 receptor (hOx1R) (Homo sapiens, UniProt O43613).
T1 construct: expressed in transfected cells
T1 sequence (O43613 1-425): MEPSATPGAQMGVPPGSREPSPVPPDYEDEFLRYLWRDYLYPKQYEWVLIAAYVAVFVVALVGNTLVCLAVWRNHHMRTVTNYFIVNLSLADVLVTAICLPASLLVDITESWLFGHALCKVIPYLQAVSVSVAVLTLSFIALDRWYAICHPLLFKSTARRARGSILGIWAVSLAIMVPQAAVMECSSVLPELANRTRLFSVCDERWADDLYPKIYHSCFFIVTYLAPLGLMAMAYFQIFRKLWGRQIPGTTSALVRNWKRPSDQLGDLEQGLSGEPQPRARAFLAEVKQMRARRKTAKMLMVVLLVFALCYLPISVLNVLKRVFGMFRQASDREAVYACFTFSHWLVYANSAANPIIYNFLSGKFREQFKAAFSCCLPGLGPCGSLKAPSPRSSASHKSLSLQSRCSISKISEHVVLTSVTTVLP
Kind of assay: Calcium accumulation in cells (FLIPR), antagonism of orexin A, hOx1R. The format is cell-based. The settings on record: for pKd: cells expressing human orexin 1 receptor, IC50 vs orexin A converted by Cheng and Prusoff correction; for inhibition at 10 µM: measured at a concentration of 10 μM of compound (cells marked ^a). The gist of the method: (§1)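 Serum-starved receptor-expressing cells were loaded with Fluo-4-AM (2 μM) plus probenecid (0.1 mM) in HEPES buffer, pH 7.4, with 1% BSA, and Ca2+ fluorescence was read on FLIPR. Compounds (10^−9–10^−5 M) were added first, and orexin A was added one hour later to measure antagonism.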

Assay [2] has as its target T2, human orexin 2 receptor (hOx2R) (Homo sapiens, UniProt O43614).
T2 construct: expressed in transfected cells
T2 sequence (O43614 1-444): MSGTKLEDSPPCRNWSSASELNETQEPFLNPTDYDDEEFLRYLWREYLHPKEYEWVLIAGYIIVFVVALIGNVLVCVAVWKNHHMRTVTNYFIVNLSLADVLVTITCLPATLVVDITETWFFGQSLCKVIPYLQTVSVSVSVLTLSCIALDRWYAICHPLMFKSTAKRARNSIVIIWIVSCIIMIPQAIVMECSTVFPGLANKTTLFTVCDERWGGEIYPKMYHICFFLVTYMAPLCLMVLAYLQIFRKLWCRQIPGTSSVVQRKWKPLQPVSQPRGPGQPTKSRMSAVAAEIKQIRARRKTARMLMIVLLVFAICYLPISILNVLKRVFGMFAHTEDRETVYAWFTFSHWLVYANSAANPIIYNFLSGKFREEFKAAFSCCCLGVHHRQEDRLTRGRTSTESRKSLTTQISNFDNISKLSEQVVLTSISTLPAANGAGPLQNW
Kind of assay: Radioligand binding assay ([125I]orexin A competition), hOx2R. Particulars: CHO or HEK cell membranes, 1 h room temperature. The gist of the method:
(§2)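 Membranes from CHO or HEK cells expressing the human receptor, incubated 1 h at room temperature with […] [125I]orexin A and compound in HEPES pH 7.5 buffer with BSA, MgCl2, CaCl2 and tween.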

The target of assay [3] is T2, human orexin 2 receptor (hOx2R). Put plainly: Calcium accumulation in cells (FLIPR), antagonism of orexin A, hOx2R. Format: cell-based. Particulars: for pKd: cells expressing human orexin 2 receptor, IC50 vs orexin A converted by Cheng and Prusoff correction; for inhibition at 10 µM: measured at a concentration of 10 μM of compound (cells marked ^a). The gist of the method:
as §1

The target in assay [4] is T1, human orexin 1 receptor (hOx1R). Put plainly: Radioligand binding assay ([125I]orexin A competition), hOx1R. Particulars: CHO or HEK cell membranes, 1 h room temperature. In short, it runs like this: as §2

For the compound `CN(C(=O)c1cc(C(F)(F)F)cc(C(F)(F)F)c1)C(CCNC(=O)c1ccc2c(ccn2C)c1)Cc1ccccc1` (stereo not shown) [Example 60, 1-Methyl-1H-indole-5-carboxylic acid {3-[(3,5-bis-trifluoromethyl-benzoyl)-methyl-amino]-4-phenyl-butyl}-amide], the negative-log Kd (pKd) was 5.46 in assay [1], 5.41 in assay [2], 6.44 in assay [3] and 4.76 in assay [4].

For the compound `CN1CCc2cc(C(=O)N(C)[C@H](CCNC(=O)c3ccccn3)Cc3ccccc3)ccc21` [Example 55, 1-Methyl-2,3-dihydro-1H-indole-5-carboxylic acid {(S)-1-benzyl-3-[(pyridine-2-carbonyl)-amino]-propyl}-methyl-amide], the negative logarithm of the Kd (pKd) was 5.79 in assay [1], 5.75 in assay [2], 5.89 in assay [3] and 7.12 in assay [4].

Consider `CN(C(=O)c1ccccc1)[C@H](CCNC(=O)c1cccc2cccnc12)Cc1ccccc1` [Example 49, Quinoline-8-carboxylic acid [(S)-3-(benzoyl-methyl-amino)-4-phenyl-butyl]-amide], for which the inhibition at 10 µM in assay [1] was 9%. Further, the pKd was 5.97 in assay [2], 6.38 in assay [3] and 5.61 in assay [4].

With `Cc1nc2sccn2c1C(=O)NCC[C@H](Cc1ccccc1)N(C)C(=O)c1ccc2c(c1)OCO2` [Example 82, 6-Methyl-imidazo[2,1-b]thiazole-5-carboxylic acid {(S)-3-[(benzo[1,3]dioxole-5-carbonyl)-methyl-amino]-4-phenyl-butyl}-amide], the pKd is 6.02 in assay [1], 7.92 in assay [2], 8.70 in assay [3] and 6.79 in assay [4].

For the compound `CN(C(=O)c1ccc2c(c1)OCCO2)[C@H](CCNC(=O)c1ccccn1)Cc1ccccc1` [Example 71, Pyridine-2-carboxylic acid {(S)-3-[(2,3-dihydro-benzo[1,4]dioxine-6-carbonyl)-methyl-amino]-4-phenyl-butyl}-amide], the pKd in assay [1] was 5.71; in assay [2], 5.02; in assay [4], 5.79. Moreover, the inhibition at 10 µM in assay [3] was found to be 28%.

`CN(C(=O)c1ccc(C(F)(F)F)cc1)[C@H](CCNC(=O)c1ccccn1)Cc1ccccc1` [Example 73, Pyridine-2-carboxylic acid {(S)-3-[methyl-(4-trifluoromethyl-benzoyl)-amino]-4-phenyl-butyl}-amide]: the pKd in assay [1] was 5.72; in assay [2], less than 5.00; in assay [3], 5.88; in assay [4], less than 5.00.

Take `COc1cccc(C(=O)N(C)[C@H](CCNC(=O)c2cccn2C)Cc2ccccc2)c1` [Example 103, 1-Methyl-1H-pyrrole-2-carboxylic acid {(S)-3-[(3-methoxy-benzoyl)-methyl-amino]-4-phenyl-butyl}-amide]: the pKd in assay [1] is 5.85; in assay [2] it was 7.72; in assay [3], 8.10; in assay [4], 6.20.

As to `CCOc1cccc(C(=O)N(C)[C@H](CCNC(=O)c2cccn2C)Cc2ccccc2)c1` [Example 121, 1-Methyl-1H-pyrrole-2-carboxylic acid {(S)-3-[(3-ethoxy-benzoyl)-methyl-amino]-4-phenyl-butyl}-amide], the negative logarithm of the Kd (pKd) in assay [1] was 6.16; in assay [2], 8.10; in assay [3], 8.70; in assay [4], 6.69.

`CN(C(=O)c1ccc2c(c1)OC(F)(F)O2)[C@H](CCNC(=O)c1cccn1C)Cc1ccccc1` [Example 107, 1-Methyl-1H-pyrrole-2-carboxylic acid {(S)-3-[(2,2-difluoro-benzo[1,3]dioxole-5-carbonyl)-methyl-amino]-4-phenyl-butyl}-amide]: the pKd was 5.97 in assay [1], 6.79 in assay [2], 7.27 in assay [3] and 5.60 in assay [4].

On to `CN(C(=O)c1cc(C(F)(F)F)cc(C(F)(F)F)c1)[C@H](CCNC(=O)c1nc2ccccc2n1C)Cc1ccccc1` [Example 12, 1-Methyl-1H-benzoimidazole-2-carboxylic acid {(S)-3-[(3,5-bis-trifluoromethyl-benzoyl)-methyl-amino]-4-phenyl-butyl}-amide], for which the pKd in assay [1] is 6.36; in assay [2], 7.01; in assay [3], 7.40; in assay [4], 5.97.

Consider `CN(C(=O)c1cccc2c1OCCO2)[C@H](CCNC(=O)c1ccccn1)Cc1ccccc1` [Example 54, Pyridine-2-carboxylic acid {(S)-3-[(2,3-dihydro-benzo[1,4]dioxine-5-carbonyl)-methyl-amino]-4-phenyl-butyl}-amide], for which, in assay [1], the inhibition at 10 µM was found to be 9%. In addition, the negative-log Kd (pKd) in assay [2] is 5.76; in assay [3] it was 6.02; in assay [4], less than 5.00.

`CCCOc1cccc(C(=O)N(C)[C@H](CCNC(=O)c2cccn2C)Cc2ccccc2)c1` [Example 126]: the pKd was 5.68 in assay [1], 7.06 in assay [2], 7.25 in assay [3] and 5.61 in assay [4].

As for `CN(C(=O)c1ccccc1)[C@H](CCNC(=O)c1ccc2c(c1)OCO2)Cc1ccccc1` [Example 93, Benzo[1,3]dioxole-5-carboxylic acid [(S)-3-(benzoyl-methyl-amino)-4-phenyl-butyl]-amide], the inhibition at 10 µM in assay [1] turned out to be 30%. Moreover, the pKd in assay [2] was 6.94; in assay [3] it was 6.79; in assay [4] it was 5.51.

Take `CCN(C(=O)c1cc(C(F)(F)F)cc(C(F)(F)F)c1)[C@H](CCNC(=O)c1ccccn1)Cc1ccccc1` [Example 10, Pyridine-2-carboxylic acid {(S)-3-[(3,5-bis-trifluoromethyl-benzoyl)-ethyl-amino]-4-phenyl-butyl}-amide]: the negative-log Kd (pKd) was 5.87 in assay [1], 7.23 in assay [2], 7.57 in assay [3] and 5.49 in assay [4].

For `CN(C(=O)c1ccccc1)[C@H](CCNC(=O)c1cccc2c1OCO2)Cc1ccccc1` [Example 32, Benzo[1,3]dioxole-4-carboxylic acid [(S)-3-(benzoyl-methyl-amino)-4-phenyl-butyl]-amide], the inhibition at 10 µM in assay [1] was 24%. Further, the values for the pKd in assay [2], in assay [3] and in assay [4] were 6.36, 7.17 and less than 5.00, respectively.

Take `CN(C(=O)c1cccc2ccccc12)[C@H](CCNC(=O)c1nc2ccccc2n1C)Cc1ccc(F)cc1` [Example 24, 1-Methyl-1H-benzoimidazole-2-carboxylic acid {(S)-4-(4-fluoro-phenyl)-3-[methyl-(naphthalene-1-carbonyl)-amino]-butyl}-amide]: the negative-log Kd (pKd) in assay [1] was 6.91; in assay [2] it was 6.56; in assay [3], 8.30; in assay [4], 5.86.

As for `CN(C(=O)c1ccc2c(c1)CCO2)[C@H](CCNC(=O)c1ccccn1)Cc1ccccc1` [Example 29, Pyridine-2-carboxylic acid {(8)-3-[(2,3-dihydro-benzofuran-5-carbonyl)-methyl-amino]-4-phenyl-butyl}-amide], the pKd in assay [1] was 5.66; in assay [2] it was 6.43; in assay [3], 6.80; in assay [4] it was 6.29.

As to `Cc1cccc(C(=O)N(C)[C@H](CCNC(=O)c2ccccn2)Cc2ccccc2)c1` [Example 96, Pyridine-2-carboxylic acid {(S)-3-[methyl-(3-methyl-benzoyl)-amino]-4-phenyl-butyl}-amide], the negative-log Kd (pKd) in assay [1] was 6.32; in assay [2], 6.88; in assay [3] it was 7.13; in assay [4] it was 6.61.

As for `CN(C(=O)c1cccc2c1OCO2)[C@H](CCNC(=O)c1ccccn1)Cc1ccc(Cl)cc1` [Example 65, Pyridine-2-carboxylic acid [(S)-3-[(benzo[1,3]dioxole-4-carbonyl)-methyl-amino]-4-(4-chloro-phenyl)-butyl]-amide], the results for the inhibition at 10 µM in assay [1] and in assay [3] were 3% and 41%, respectively. For the same compound, the figures for the pKd in assay [2] and in assay [4] were 5.16 and less than 5.00, respectively.

Broadly, the pKd is the Kd on a negative log10 scale, so that one unit is a factor of ten. As usually defined, the inhibition is the percentage by which the read-out fell short of the control.
